Reference: PubChem BioAssay AID624144 (National Center for Advancing Translational Sciences (NCATS), 2012)

System: human plasma stability, LC-MS/MS, 48 h
Assay: qHTS Assay to Find Inhibitors of T. brucei phosphofructokinase: Human Plasma Stability Profiling
Settings: at 2 µM; active compounds read low

SMILES: O=C(Cc1ccc(Cl)c(Cl)c1)Nc1ccc(S(=O)(=O)Nc2ccon2)cc1
- percent remaining in plasma (higher = more stable): 100%
